Test system: Pyricularia oryzae
Assay type: cell-based
Settings: single active compound, Conc. 1 ppm; microtiter plate, malt-based medium, 18° C., measured at 405 nm on day 7 after inoculation

SMILES	Observed effect (%)
Fc1ccc(C2(Cn3cncn3)OC2c2ccccc2Cl)cc1 (centres unmarked) [Epoxiconazole, epoxiconazole]	0%
CC(C)(C)C(O)(CCc1ccc(Cl)cc1)Cn1cncn1 (centres unmarked) [Tebuconazole, tebuconazole]	2%

Reference: US20090042963A1 (priority 2005, published 2009)
